Laboratory results reported in patent US9480418B2, “Systems and methods for the screening and monitoring of inner ear function” (The United States Government as represented by the …, priority 2012, dated 2016).

Test system: hearing in the SRO frequencies
Experiment: Validation study: SRO hearing monitoring with OtoID in subjects receiving cisplatin
Assay type: in vivo, human
Settings: 9 ears of 24 monitored; Validation sample
Excerpt: Validation Study, Sample Subjects. […] Subjects were prescreened using the electronic medical records for exclusionary criteria and to obtain treatment information. The subjects enrolled in the Validation study were part of a larger project to develop and evaluate a portable hearing testing device capable of measuring extended high frequency hearing. Except for the following two study-related differences, the same exclusionary criteria were used to recruit both groups of subjects (those participating in the Developmental or Validation studies). First, there was no exclusion for extent of hearing threshold loss in the Validation study sample. Second, subjects from the Validation study were tested on the chemotherapy unit or at bedside in the case of inpatients. There was no overlap of subjects in these two samples.
Validation Study; Equipment and Measurements. […] This device, the OtoID, was evaluated in an independent study for its ability to optimize the sensitivity, efficiency, and cost-effectiveness of ototoxicity early identification practices. […]
Sennheiser HDA 200 earphones were used with the OtoID to reduce the detrimental effects of environmental noise. […] The seven frequencies constituting each subject's individualized behavioral SRO were evaluated at each treatment interval. […] Subjects were also evaluated immediately following cessation of treatment and at 1 mo post-cessation of treatment. […]

With N.N.[Cl][Pt][Cl] [cisplatin] the “ears in which hearing loss occurred” value was 38%.
